Assay results: article PMC10709440, “High-throughput ligand profile characterization in novel cell lines expressing seven heterologous insect olfactory receptors for the detection of volatile plant biomarkers” (Scientific Reports, 2023)
Read-outs that look alike come from different tables or passages of the source.

Legend:
Drosophila OR13a = molecular target: T1, Drosophila OR13a (Drosophila melanogaster, UniProt Q9VXL0); experiment: Calcium ion fluorescence (GCaMP6) assay, OR13a stable HEK293 cell line; type: cell-based; settings: for DF norm AVERAGE OR13a: threshold 0.05, below shown as 0
T1 construct: expressed in transfected cells
T1 sequence (Q9VXL0 1-418): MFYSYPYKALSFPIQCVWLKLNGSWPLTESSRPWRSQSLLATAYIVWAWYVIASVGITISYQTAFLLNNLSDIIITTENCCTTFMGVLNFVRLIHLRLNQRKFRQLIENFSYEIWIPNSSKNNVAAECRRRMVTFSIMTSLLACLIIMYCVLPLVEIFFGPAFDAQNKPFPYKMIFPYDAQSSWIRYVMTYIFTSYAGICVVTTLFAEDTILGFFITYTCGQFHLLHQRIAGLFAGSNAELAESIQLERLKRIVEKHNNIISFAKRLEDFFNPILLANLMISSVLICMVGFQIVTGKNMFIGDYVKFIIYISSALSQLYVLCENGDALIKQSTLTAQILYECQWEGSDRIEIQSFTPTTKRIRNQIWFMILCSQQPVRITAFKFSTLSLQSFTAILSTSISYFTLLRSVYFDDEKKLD
T1 sequence (Q9VNB5 1-486 partner): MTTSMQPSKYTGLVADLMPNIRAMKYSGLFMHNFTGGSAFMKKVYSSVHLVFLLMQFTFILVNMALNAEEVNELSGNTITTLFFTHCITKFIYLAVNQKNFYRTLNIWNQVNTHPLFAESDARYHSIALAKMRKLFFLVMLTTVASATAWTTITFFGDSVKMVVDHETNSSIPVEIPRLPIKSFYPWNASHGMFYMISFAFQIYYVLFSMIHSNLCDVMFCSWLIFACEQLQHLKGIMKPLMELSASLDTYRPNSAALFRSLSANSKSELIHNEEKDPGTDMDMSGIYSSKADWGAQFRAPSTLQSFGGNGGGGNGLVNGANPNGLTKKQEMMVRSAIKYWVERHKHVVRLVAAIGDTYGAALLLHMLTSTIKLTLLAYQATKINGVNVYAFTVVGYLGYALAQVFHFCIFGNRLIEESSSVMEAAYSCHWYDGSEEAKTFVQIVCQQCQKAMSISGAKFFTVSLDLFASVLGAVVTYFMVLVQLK
Method in brief: (§1)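 HEK293 lines stably expressing each Drosophila OR with GCaMP6, doxycycline-induced (1 μg/mL) 48 or 72 h. Fluorescence recorded 5 s baseline then 30 s after VOC injection at pH 7.3; ΔF=(FMAX−F0)/F0, normalized to 50 µM VUAA1 response per line, triplicate wells averaged; concentration series 0.01–100 μM.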

Drosophila OR10a = molecular target: T2, Drosophila OR10a (Drosophila melanogaster, UniProt Q9VYZ1); experiment: Calcium ion fluorescence (GCaMP6) assay, OR10a stable HEK293 cell line; type: cell-based; settings: for DF norm AVERAGE OR10a: threshold 0.05, below shown as 0
T2 construct: expressed in transfected cells
T2 sequence (Q9VYZ1 1-406): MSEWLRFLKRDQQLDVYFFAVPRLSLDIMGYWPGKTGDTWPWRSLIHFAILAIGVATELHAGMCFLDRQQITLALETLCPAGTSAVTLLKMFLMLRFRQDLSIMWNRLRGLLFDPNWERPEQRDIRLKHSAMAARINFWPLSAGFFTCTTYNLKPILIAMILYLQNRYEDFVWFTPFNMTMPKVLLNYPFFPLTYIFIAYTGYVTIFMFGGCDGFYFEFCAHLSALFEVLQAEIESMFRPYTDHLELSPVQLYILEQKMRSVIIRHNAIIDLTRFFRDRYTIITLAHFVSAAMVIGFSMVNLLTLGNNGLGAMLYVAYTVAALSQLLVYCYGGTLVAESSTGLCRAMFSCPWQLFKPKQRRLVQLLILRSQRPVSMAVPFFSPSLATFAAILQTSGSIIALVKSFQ
T2 sequence (Q9VNB5 1-486 partner): T1 sequence (Q9VNB5 1-486 partner)
Method in brief: as §1

[1] = HEK293, read-out: OR13a Average response (VUAA1-normalized), 1 μM VOC, 50 μM VUAA1 = 1, responses not exceeding 0.05 considered 0
[2] = HEK293, read-out: OR13a Average response (VUAA1-normalized), 10 μM VOC, 50 μM VUAA1 = 1, responses not exceeding 0.05 considered 0
[3] = HEK293, read-out: OR13a Average response (VUAA1-normalized), 100 μM VOC, 50 μM VUAA1 = 1, responses not exceeding 0.05 considered 0
[4] = HEK293, read-out: OR13a response (VUAA1-normalized response), VOC concentration 1 μM
[5] = HEK293, read-out: OR13a response (VUAA1-normalized response), VOC concentration 10 μM
[6] = HEK293, read-out: OR13a response (VUAA1-normalized response), VOC concentration 100 μM
[7] = ligand concentration 1 (unit not given)
[8] = ligand concentration 10 (unit not given)
[9] = ligand concentration 100 (unit not given)
[10] = HEK293, read-out: OR10a Average response (VUAA1-normalized), 1 μM VOC, 50 μM VUAA1 = 1, responses not exceeding 0.05 considered 0
[11] = HEK293, read-out: OR10a Average response (VUAA1-normalized), 10 μM VOC, 50 μM VUAA1 = 1, responses not exceeding 0.05 considered 0
[12] = HEK293, read-out: OR10a Average response (VUAA1-normalized), 100 μM VOC, 50 μM VUAA1 = 1, responses not exceeding 0.05 considered 0
[13] = HEK293, read-out: OR10a response (VUAA1-normalized response), VOC concentration 1 μM
[14] = HEK293, read-out: OR10a response (VUAA1-normalized response), VOC concentration 10 μM
[15] = HEK293, read-out: OR10a response (VUAA1-normalized response), VOC concentration 100 μM
[16] = 100 µM, OR10a clone G5, single plate 2019.12.05
[17] = HEK293, 1 μM VOC, 50 μM VUAA1 = 1, responses not exceeding 0.05 considered 0, read-out: OR10a Average response (VUAA1-normalized)
[18] = HEK293, 10 μM VOC, 50 μM VUAA1 = 1, responses not exceeding 0.05 considered 0, read-out: OR10a Average response (VUAA1-normalized)
[19] = HEK293, 100 μM VOC, 50 μM VUAA1 = 1, responses not exceeding 0.05 considered 0, read-out: OR10a Average response (VUAA1-normalized)
[20] = 1 μM VOC, 50 μM VUAA1 = 1, responses not exceeding 0.05 considered 0
[21] = 10 μM VOC, 50 μM VUAA1 = 1, responses not exceeding 0.05 considered 0
[22] = 100 μM VOC, 50 μM VUAA1 = 1, responses not exceeding 0.05 considered 0

| SMILES | activation at 1 µM (Drosophila OR13a; [1]) [%] | activation at 10 µM (Drosophila OR13a; [2]) [%] | activation at 100 µM (Drosophila OR13a; [3]) [%] | activation at 1 µM (Drosophila OR13a; [4]) [%] | activation at 10 µM (Drosophila OR13a; [5]) [%] | activation at 100 µM (Drosophila OR13a; [6]) [%] | DF norm AVERAGE OR13a (Drosophila OR13a; [7]) | DF norm AVERAGE OR13a (Drosophila OR13a; [8]) | DF norm AVERAGE OR13a (Drosophila OR13a; [9]) | activation at 1 µM (Drosophila OR10a; [10]) [%] | activation at 10 µM (Drosophila OR10a; [11]) [%] | activation at 100 µM (Drosophila OR10a; [12]) [%] | activation at 1 µM (Drosophila OR10a; [13]) [%] | activation at 10 µM (Drosophila OR10a; [14]) [%] | activation at 100 µM (Drosophila OR10a; [15]) [%] | DF norm AVERAGE OR10a (Drosophila OR10a; [7]) | DF norm AVERAGE OR10a (Drosophila OR10a; [8]) | DF norm AVERAGE OR10a (Drosophila OR10a; [9]) | activation at 1 µM (Drosophila OR10a; [17]) [%] | activation at 10 µM (Drosophila OR10a; [18]) [%] | also measured |
| --- | --- | --- | --- | --- | --- | --- | --- | --- | --- | --- | --- | --- | --- | --- | --- | --- | --- | --- | --- | --- | --- |
| C=C1CCC2CC1C2(C)C (stereo not drawn) [beta-pinene] | 8 | 0 | 3.25 | 8 | 0 | 0 | 0.08064 | 0 | 0 | 2.77 | 4 | 9 | 0 | 0 | 9 | 0 | 0 | 0.0885 | – | – | – |
| CCCCOC(C)=O [butyl acetate] | 0 | 0 | 1.56 | 0 | 0 | 0 | 0 | 0 | 0 | 3 | 0 | 5 | 0 | 0 | 0 | 0 | 0 | 0 | – | – | – |
| CCCCOC(=O)CC [butyl propanoate] | 0 | 0 | 0 | 0 | 0 | 0 | 0 | 0 | 0 | – | – | – | 0 | 0 | 0 | 0 | 0 | 0 | 0 | 0 | DF norm, all technical replicates (Drosophila OR10a; [16]): 0; DF norm, outlier technical replicates removed (Drosophila OR10a; [16]): 0; DF, outlier technical replicates removed (Drosophila OR10a; [16]): 0; DF, all technical replicates (Drosophila OR10a; 100 µM, OR10a clone G5, single plate 2019.12.05, xc+0.1%DMSO): 0; activation at 100 µM (Drosophila OR10a; [19]): 3.44% |
| CCCCCCCCCC=O [decanal] | 0 | 0 | 0 | 0 | 0 | 0 | 0 | 0 | 0 | – | – | – | 0 | 0 | 0 | 0 | 0 | 0 | 0 | 0 | activation at 100 µM (Drosophila OR10a; [19]): 0% |
| CC/C=C/CCO [e3-hexenol] | – | – | – | – | – | – | 0 | 0 | 0.07115 | – | – | – | – | – | – | 0 | 0 | 0.07404 | – | – | OR13a Average response (VUAA1-normalized) (Drosophila OR13a; [20]): 0.00; OR13a Average response (VUAA1-normalized) (Drosophila OR13a; [21]): 0.00; OR13a Average response (VUAA1-normalized) (Drosophila OR13a; [22]): 0.07; OR10a Average response (VUAA1-normalized) (Drosophila OR10a; [20]): 0.0153; OR10a Average response (VUAA1-normalized) (Drosophila OR10a; [21]): 0.00; OR10a Average response (VUAA1-normalized) (Drosophila OR10a; [22]): 0.074 |
